Source: patent US9260439B2, “Dihydropyrrolopyrimidine derivatives” (PFIZER INC., priority 2014, dated 2016)

Legend:
[1] = target: truncated PI3Kα (p110α/iSH2 p85α) (Homo sapiens (Human), UniProt P42336); test: PI3KA_Act fluorescence polarization kinase assay (Ki); format: biochemical; settings: 1 mM ATP
Method in brief: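 Ki values result from fitting fluorescence polarization signals to the Morrison equation for tight-binding competitive inhibitors. The detector was GST-Grp1 PH domain with TAMRA-PIP3, read after a 30 min room-temperature reaction of 0.5 nM truncated PI3Kα and 30 μM PIP2 at pH 7.4 in HEPES/NaCl/MgCl2/DTT/CHAPS buffer. Compounds were tested as 12-point 3-fold dilutions from 3 μM.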

[2] = target: full-length PI3Kα (full-length p110α/p85α) (Homo sapiens (Human), UniProt P42336); test: PI3KA_FL fluorescence polarization kinase assay (Ki); format: biochemical; settings: 41 μM ATP
full-length PI3Kα (full-length p110α/p85α), sequence (P42336 whole entry): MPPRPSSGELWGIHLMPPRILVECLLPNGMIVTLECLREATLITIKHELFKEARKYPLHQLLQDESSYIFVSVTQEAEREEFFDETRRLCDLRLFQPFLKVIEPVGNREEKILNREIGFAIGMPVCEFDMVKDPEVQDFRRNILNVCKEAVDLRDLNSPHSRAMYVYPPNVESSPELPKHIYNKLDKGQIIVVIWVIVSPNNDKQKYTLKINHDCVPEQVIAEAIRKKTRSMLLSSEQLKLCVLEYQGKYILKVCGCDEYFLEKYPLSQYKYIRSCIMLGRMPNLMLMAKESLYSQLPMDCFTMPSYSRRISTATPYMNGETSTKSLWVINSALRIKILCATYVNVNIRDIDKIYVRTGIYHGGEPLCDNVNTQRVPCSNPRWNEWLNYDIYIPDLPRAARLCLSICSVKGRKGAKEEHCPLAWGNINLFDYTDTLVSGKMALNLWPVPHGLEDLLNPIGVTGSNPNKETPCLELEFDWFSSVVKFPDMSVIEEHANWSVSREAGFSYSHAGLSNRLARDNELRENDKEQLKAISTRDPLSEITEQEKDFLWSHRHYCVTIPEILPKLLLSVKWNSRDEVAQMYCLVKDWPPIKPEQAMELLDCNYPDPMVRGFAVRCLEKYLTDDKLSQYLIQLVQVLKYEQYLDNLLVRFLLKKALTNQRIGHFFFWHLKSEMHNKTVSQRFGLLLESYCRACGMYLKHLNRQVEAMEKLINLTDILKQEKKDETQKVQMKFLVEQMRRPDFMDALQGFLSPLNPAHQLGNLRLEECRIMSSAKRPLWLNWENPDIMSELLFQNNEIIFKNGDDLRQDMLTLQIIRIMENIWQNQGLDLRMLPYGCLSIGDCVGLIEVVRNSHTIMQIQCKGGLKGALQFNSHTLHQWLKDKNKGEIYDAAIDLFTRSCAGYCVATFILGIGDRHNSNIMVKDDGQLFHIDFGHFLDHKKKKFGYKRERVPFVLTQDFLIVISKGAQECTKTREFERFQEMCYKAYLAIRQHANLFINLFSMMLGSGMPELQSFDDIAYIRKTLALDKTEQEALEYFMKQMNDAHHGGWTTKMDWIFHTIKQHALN
full-length PI3Kα (full-length p110α/p85α), sequence (P27986 whole entry partner): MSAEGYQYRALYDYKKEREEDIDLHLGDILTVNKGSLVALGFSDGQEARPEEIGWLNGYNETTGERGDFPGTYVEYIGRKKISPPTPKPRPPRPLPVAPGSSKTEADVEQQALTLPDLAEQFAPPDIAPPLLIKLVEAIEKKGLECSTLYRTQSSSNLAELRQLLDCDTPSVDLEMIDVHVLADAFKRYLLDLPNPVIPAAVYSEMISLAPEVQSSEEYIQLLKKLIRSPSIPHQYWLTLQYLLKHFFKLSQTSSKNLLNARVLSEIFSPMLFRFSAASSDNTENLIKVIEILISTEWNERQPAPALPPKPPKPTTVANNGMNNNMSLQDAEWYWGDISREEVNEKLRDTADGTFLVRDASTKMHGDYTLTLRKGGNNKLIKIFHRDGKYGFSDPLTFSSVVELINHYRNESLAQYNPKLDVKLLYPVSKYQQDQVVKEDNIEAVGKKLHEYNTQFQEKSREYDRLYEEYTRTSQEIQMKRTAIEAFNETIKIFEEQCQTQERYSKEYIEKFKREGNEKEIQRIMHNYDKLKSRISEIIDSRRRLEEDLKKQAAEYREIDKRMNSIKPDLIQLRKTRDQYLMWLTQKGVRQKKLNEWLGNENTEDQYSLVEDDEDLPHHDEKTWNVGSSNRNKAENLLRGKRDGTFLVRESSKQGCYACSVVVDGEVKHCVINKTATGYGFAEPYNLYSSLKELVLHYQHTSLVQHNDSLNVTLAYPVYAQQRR
Text: Enzyme Production for Biochemical Assays: 1) PI3Kα Complex (Full Length p110α and p85α)(“PI3KA_FL”)
Genes encoding for full length p110α and p85α subunits of PI3Kα complex were subcloned from existing constructs into pFASTBAC Dual vector (Life Technologies, Carlsbad, Calif.) using standard cloning procedures. Gene encoding p110α subunit was subcloned into polyhedrine promoter while gene encoding p85α subunit was subcloned into p10 promoter. Additionally, sequence encoding for histidine tag and Tobacco Etch Virus (“TEV”) cleavage site preceded p110α ORF (Open Reading Frame). Recombinant baculovirus was generated using Bac-to-Bac protocol (Life Technologies, Carlsbad, Calif.) and large scale expression was conducted in Sf21 (Life Technologies, Carlsbad, Calif.) cells at a multiplicity of infection (“MOI”)=1 for 72 hours. Cells were lyzed in 50 mM Tris pH 8.0, 250 mM NaCl, 5% glycerol, 0.25 mM TCEP, and 20 mM imidazole. The PI3Kα complex was purified from clarified supernatant using Immobilized Metalo Affinity Chromatography (“IMAC”). The protein was eluted from the column using 50 mM Tris pH 8.0, 200 mM NaCl, 5% glycerol, 0.25 mM TCEP, and 200 mM imidazole, and further desalted into 50 mM Tris pH 8.0, 20 mM NaCl, and 0.25 mM TCEP prior to loading on MonoQ sepharose (GE Healthcare, Piscataway, N.J.). PI3Kα complex was eluted from MonoQ sepharose over 20 column volumes using 0-30% gradient of buffer B (50 mM Tris pH 8.0, 1 M NaCl, and 0.25 mM TCEP). The peak fractions were pulled together and loaded on Superdex 200 26/60 SEC column equilibrated in 50 mM Tris pH 8.0, 200 mM NaCl, and 0.5 mM TCEP. […] Purity and integrity of the complex was confirmed using LCMS, analytical SEC and SDS-PAGE (sodium dodecyl sulfate polyacrylamide gel electrophoresis) analysis.
The biochemical assays of kinase activity of full-length PI3Kα (full-length p110α/p85a) or truncated PI3Kα (p110α/iSH2 p85a) were conducted using a fluorescence polarization format similar to the procedure of Yuan J., et al., (2011) “PF-04691502, a Potent and Selective Oral Inhibitor of PI3K and mTOR Kinases with Antitumor Activity”, Mol Cancer Ther. 10, 2189-2199. The enzymatic reactions were conducted in 50 μL volumes in 96-well plates. The reactions contained human recombinant PI3Kα (2 nM full-length p110α/p85α or 0.5 nM p110α/iSH2 p85) and 30 μM phosphatidylinositol 4,5-bisphosphate (“PIP2”) (Cayman Chemical Company, Ann Arbor, Mich.) and were sonicated for 1 minute prior to adding PI3Kα enzyme (PI3KA_Act or PI3KA_FL), DMSO or test compound (12-point 3-fold serial dilution, 3 μM top dose, 2° A) DMSO final concentration), 5 mM MgCl2, 50 mM HEPES pH 7.4, 150 mM NaCl, 1 mM DTT ((2S,3S)-1,4-bis(sulfanyl)butane-2,3-diol), and 0.05% 3-[(3-cholamidopropyl)dimethylammonio]-1-propanesulfonate (“CHAPS”). […] The reactions were incubated for 30 min at room temperature, stopped with EDTA pH 8 (10 mM final concentration). In a detection plate, 15 μL of detector/probe mixture, containing 480 nM GST-Grp1 PH domain protein (University of Dundee, Dundee, UK) and 12 nM carboxytetramethylrhodamine (“TAMRA”)-tagged fluorescent phosphatidylinositol (3,4,5)-triphosphate (“PIP3”) (Echelon Biosciences, Inc., Salt Lake City, Utah) in assay buffer, was mixed with 15 μL of kinase reaction mixture. The plate was shaken for 30 minutes and fluorescence polarization values were measured on an LJL Analyst HT plate reader (Molecular Devices, Sunnyvale, Calif.). […] The inhibition constants (Ki) were calculated by fitting fluorescence polarization values, corresponding to initial reaction rates, to the Morrison equation (Morrison, J. F. (1969) Kinetics of the reversible inhibition of enzyme catalysed reactions by tight-binding inhibitors. Biochim. Biophys. Acta 185, 269-286) for tight-binding competitive inhibitors using non-linear regression method (GraphPad Prism, GraphPad Software, San Diego, Calif.).

truncated PI3Kα (p110α/iSH2 p85α), sequence (P42336 whole entry, the tested form may be a part): as the sequence (P42336 whole entry) above

Row | SMILES | PI3KA_Act Ki [1] [nM] | PI3KA_FL Ki (nM) [2] | PI3KA_FL Ki [2] [nM]
1 | CC1(N2CCc3c(-c4cnc(N)nc4)nc(N4CCOCC4)nc32)CCN(S(C)(=O)=O)C1 (racemic) [Example 146] | 0.015 | ≦0.229 nM | –
2 | Nc1ncc(-c2nc(N3CCOCC3)nc3c2CCN3[C@H]2CCC(F)(F)C2)cn1 (single isomer, unassigned) [Example 34] | 0.730 | – | 0.469
3 | Nc1ncc(-c2nc(N3CCOCC3)nc3c2CCN3[C@@H]2CCC(F)(F)C2)cn1 (single isomer, unassigned) [Example 35] | 0.311 | – | 0.393
4 | CC(=O)N1C[C@@H](F)[C@@H](N2CCc3c(-c4cnc(N)nc4)nc(N4CCOCC4)nc32)C1 (single isomer, unassigned) [Example 74] | 2.441 | – | 5.079
5 | CC(C)S(=O)(=O)N1CC(N2CCc3c(-c4cnc(N)nc4)nc(N4CCOC[C@@H]4C)nc32)C1 [Example 1, 5-{2-[(3S)-3-methylmorpholin-4-yl]-7-[1-(propan-2-ylsulfonyl)azetidin-3-yl]-6,7-dihydro-5H-pyrrolo[2,3-d]pyrimidin-4-yl}pyrimidin-2-amine] | 0.102 | ≦0.229 nM | –
6 | Nc1ncc(-c2nc(N3CCOCC3)nc3c2CCN3C2CC(F)(F)C2)cn1 [Example 13] | 0.211 | – | 0.307
7 | CS(=O)(=O)N1CC[C@H](N2CCc3c(-c4cnc(N)nc4)nc(N4CCOCC4)nc32)C1 [Example 20] | 0.153 | ≦0.229 nM | –
8 | CNS(=O)(=O)N1CC[C@H](N2CCc3c(-c4cnc(N)nc4)nc(N4CCOCC4)nc32)C1 [Example 38] | 0.124 | – | 0.228
9 | CNS(=O)(=O)N(C)[C@H]1C[C@H](N2CCc3c(-c4cnc(N)nc4)nc(N4CCOCC4)nc32)C1 [Example 46] | 0.187 | – | 0.412
10 | CNS(=O)(=O)N(C)[C@H]1C[C@@H](N2CCc3c(-c4cnc(N)nc4)nc(N4CCOCC4)nc32)C1 [Example 57] | 0.465 | – | 0.318
11 | N#C[C@H]1C[C@H](N2CCc3c(-c4cnc(N)nc4)nc(N4CCOCC4)nc32)C1 [Example 59] | 0.122 | ≦0.229 nM | –
12 | COC(=O)N1CC(N2CCc3c(-c4cnc(N)nc4)nc(N4CCOCC4)nc32)C1 [Example 61] | 0.235 | – | 0.234
13 | Nc1ncc(-c2nc(N3CCOCC3)nc3c2CCN3C2CN(S(N)(=O)=O)C2)cn1 [Example 72] | 0.129 | ≦0.229 nM | –
14 | CS(=O)(=O)N1CC(N2CCc3c(-c4cnc(N)nc4)nc(N4CCOCC4)nc32)C1 [Example 73] | 0.303 | – | 0.350
15 | C[C@H]1COCCN1c1nc(-c2cnc(N)nc2)c2c(n1)N([C@H]1CCN(C(=O)OC(C)(C)C)C1)CC2 [Example 76] | 0.182 | – | 0.359
16 | C[C@H]1COCCN1c1nc(-c2cnc(N)nc2)c2c(n1)N([C@H]1CCN(S(C)(=O)=O)C1)CC2 [Example 79] | 0.257 | ≦0.229 nM | –
17 | CN(C)S(=O)(=O)N1CC[C@H](N2CCc3c(-c4cnc(N)nc4)nc(N4CCOCC4)nc32)C1 [Example 82] | 0.100 | – | 0.240
18 | CNS(=O)(=O)N1CC[C@@H](N2CCc3c(-c4cnc(N)nc4)nc(N4CCOC[C@@H]4C)nc32)C1 [Example 85] | 0.239 | – | 0.283

Row | SMILES | PI3KA_Act Ki [1] [nM] | PI3KA_FL Ki (nM) [2] | PI3KA_FL Ki [2] [nM]
19 | CS(=O)(=O)N1CCC[C@H](N2CCc3c(-c4cnc(N)nc4)nc(N4CCOCC4)nc32)C1 [Example 99] | – | – | 2.122
20 | CO[C@@H]1CN(S(C)(=O)=O)C[C@H]1N1CCc2c(-c3cnc(N)nc3)nc(N3CCOC[C@@H]3C)nc21 [Example 103] | – | – | 0.557
21 | CS(=O)(=O)N[C@H]1C[C@@H](N2CCc3c(-c4cnc(N)nc4)nc(N4CCOCC4)nc32)C1 [Example 107] | – | – | 1.388
22 | CN(C)S(=O)(=O)N1CC(N2CCc3c(-c4cnc(N)nc4)nc(N4CCOCC4)nc32)C1 [Example 110] | – | – | 0.735
23 | CCS(=O)(=O)N1CC[C@@H](N2CCc3c(-c4cnc(N)nc4)nc(N4CCOCC4)nc32)C1 [Example 112] | – | – | 0.491
24 | CS(=O)(=O)[C@H]1CC[C@@H](N2CCc3c(-c4cnc(N)nc4)nc(N4CCOCC4)nc32)C1 [Example 114] | – | – | 1.268
25 | CC(C)S(=O)(=O)N1CC(N2CCc3c(-c4cnc(N)nc4)nc(N4CCOCC4)nc32)C1 [Example 116] | – | – | 0.961
26 | CC(C)OC(=O)N1CC[C@H](N2CCc3c(-c4cnc(N)nc4)nc(N4CCOC[C@@H]4C)nc32)C1 [Example 124] | – | – | 0.333
27 | C[C@H]1COCCN1c1nc(-c2cnc(N)nc2)c2c(n1)N([C@@H]1CN(S(N)(=O)=O)C[C@H]1O)CC2 [Example 127] | – | – | 0.789
28 | CN(C)S(=O)(=O)[C@H]1CC[C@@H](N2CCc3c(-c4cnc(N)nc4)nc(N4CCOCC4)nc32)C1 [Example 129] | – | – | 0.380
29 | CNS(=O)(=O)[C@H]1CC[C@@H](N2CCc3c(-c4cnc(N)nc4)nc(N4CCOCC4)nc32)C1 [Example 130] | – | – | 0.352
30 | COCCOC(=O)N1CC[C@H](N2CCc3c(-c4cnc(N)nc4)nc(N4CCOC[C@@H]4C)nc32)C1 [Example 133] | – | – | 0.468
31 | CC(C)N1CCc2c(-c3cnc(N)nc3)nc(N3CCOCC3)nc21 [Example 134] | – | – | 3.883
32 | CC(C)(C)NC(=O)N1CC[C@@H](N2CCc3c(-c4cnc(N)nc4)nc(N4CCOCC4)nc32)C1 [Example 135] | – | – | 5.159
33 | Nc1ncc(-c2nc(N3CCOCC3)nc3c2CCN3[C@@H]2CC[C@H](S(N)(=O)=O)C2)cn1 [Example 137] | – | – | 0.664
34 | C[C@H]1COCCN1c1nc(-c2cnc(N)nc2)c2c(n1)N([C@@H]1CCN(C(=O)NC(C)(C)C)C1)CC2 [Example 138] | – | – | 5.547
35 | CC(C)(C)NC(=O)N1CC[C@H](N2CCc3c(-c4cnc(N)nc4)nc(N4CCOCC4)nc32)C1 [Example 139] | – | – | 0.596
